Earlier results on one compound are cited in patent publication US10179134B2, “Polymeric nanoparticles in a thermosensitive gel for coital-independent vaginal prophylaxis of HIV” (Creighton University, priority 2012, dated 2019).

The data set has as its system HeLa cells.

Turning to `O=C1Nc2ccc(Cl)cc2[C@@](C#CC2CC2)(C(F)(F)F)O1` [efavirenz], the “concentration above which toxic to the HeLa cells” value is recorded as “higher than 25 μM”.
